This passage reports IC50 results from the Kinase Knowledgebase extract (Sharma et al. 2016).

The target of this assay is MAPK14 (human) (UniProt Q16539). Kind of assay: Assessment of MAPK14 Kinase Activity.
Chain of MAPK14 (human) (Q16539 whole entry, looked up): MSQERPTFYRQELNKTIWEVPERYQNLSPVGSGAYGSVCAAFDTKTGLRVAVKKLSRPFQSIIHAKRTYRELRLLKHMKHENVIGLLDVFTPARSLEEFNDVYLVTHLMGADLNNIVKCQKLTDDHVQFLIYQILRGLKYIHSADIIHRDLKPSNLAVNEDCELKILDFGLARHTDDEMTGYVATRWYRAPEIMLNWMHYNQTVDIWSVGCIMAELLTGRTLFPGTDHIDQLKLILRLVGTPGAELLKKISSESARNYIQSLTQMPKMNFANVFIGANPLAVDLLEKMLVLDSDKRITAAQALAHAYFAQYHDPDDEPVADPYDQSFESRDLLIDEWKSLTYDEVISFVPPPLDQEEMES
For orientation: IC50 means the concentration that gives 50% inhibition. High values mean weaker potency, low ones greater potency. In turn, `Cc1cc(OCc2ccccc2CNC(=O)Nc2cc(C3CC3)nn2-c2ccccc2)c(Br)c(=O)n1Cc1ccccc1` registered an IC50 of 176 nM. `Cc1cc(OCc2ccccc2CNC(=O)Nc2cc(C(C)(C)C)nn2-c2ccc(O)c(Cl)c2)c(Cl)c(=O)n1Cc1cccc(C(O)C(N)=O)c1` (stereo unspecified) displayed an IC50 of 8.9 nM.

For `Cc1ccc(C(=O)N[C@H](C)C(N)=O)cc1-n1c(C)cc(OCc2ccccc2CNC(=O)Nc2cc(C(C)(C)C)nn2-c2ccc(O)c(Cl)c2)c(Cl)c1=O`, the IC50 was found to be 2.5 nM.

`COc1ccccc1Cn1c(C)cc(OCc2ccccc2CNC(=O)Nc2cc(C(C)CSC)nn2-c2cccc(O)c2)c(Cl)c1=O` (stereo unspecified) yielded an IC50 of 20.5 nM. `Cc1cc(OCc2ccccc2CNC(=O)Nc2cc(C(C)(C)C)nn2-c2ccc(Cl)c(O)c2)c(Cl)c(=O)n1Cc1ccc(C(=O)CN)cc1` registered an IC50 of 2.4 nM. This IC50 is about 8.5-fold lower than that of the molecule before. As for `CCc1c(OCc2ccccc2CNC(=O)Nc2cc(C(C)(C)C)nn2-c2cccc(F)c2)ncn(Cc2ccccc2)c1=O`, the IC50 was 11 nM. The value for `COC(=O)c1ccc(Cn2c(C)cc(OCc3ccccc3CNC(=O)Nc3cc(C(C)(C)C)nn3-c3ccc(C)cc3)c(Br)c2=O)cc1` was 16.9 nM; that for `COC(=O)c1ccc(C)c(-n2c(SC)nc(OCc3ccc(F)cc3CNC(=O)Nc3cc(C(C)(C)C)nn3-c3ccc(C)cc3)cc2=O)c1` was 9.55 nM; that for `Cc1cc(OCc2ccccc2CNC(=O)Nc2cc(C(C)(C)C)nn2-c2ccc(O)c(Cl)c2)c(Cl)c(=O)n1Cc1ccc(C(=O)CN)cc1` was 3.6 nM. The molecule `Cc1ccc(C(=O)OCCO)cc1-n1c(C)cc(OCc2ccc(F)cc2CNC(=O)Nc2cc(C(C)(C)C)nn2-c2cccc(OCCO)c2)c(Cl)c1=O` gave a 50% inhibitory concentration (IC50) of 1.7 nM. This IC50 lies about 2.1-fold lower than the previous one. In turn, `Cc1ccc(C(=O)OCCN(C)C)cc1-n1c(C)cc(OCc2ccc(F)cc2CNC(=O)Nc2cc(C(C)(C)C)nn2-c2cccc(OCCO)c2)c(Cl)c1=O` returned a half-maximal inhibitory concentration (IC50) of 1.4 nM.
